# Results from PubChem BioAssay AID540351 (The Scripps Research Institute Molecular Screening Center, 2011).
# Calls of active or inactive are those of the source. No rule for the calls is given here.
# Legend:
# Assay in all cases: off-target receptor, channel and CYP panel, profiling panel, selectivity assay for S1P3 agonist project, biochemical, Ricerca HitProfilingScreen, CYP450 (AID 540351)
# [1] = test system: CYP450, 2C19; details: Ricerca receptor/enzyme binding panel plus CYP450, at 30 µM, hits give high values
# [2] = test system: Opiate mu (OP3, MOP); details: Ricerca receptor/enzyme binding panel plus CYP450, at 30 µM, hits give high values
# [3] = target: Cytochrome P450 2C9 (Homo sapiens) (UniProt P11712); details: Ricerca receptor/enzyme binding panel plus CYP450; CYP450, 2C9; at 30 µM; hits give high values
# [4] = test system: Nicotinic Acetylcholine; details: Ricerca receptor/enzyme binding panel plus CYP450, at 30 µM, hits give high values
# [5] = target: D(1A) dopamine receptor (Homo sapiens) (UniProt P21728); details: Ricerca receptor/enzyme binding panel plus CYP450; Dopamine D1; at 30 µM; hits give high values
# [6] = test system: Sodium Channel, Site 2; details: Ricerca receptor/enzyme binding panel plus CYP450, at 30 µM, hits give high values
# [7] = test system: Calcium Channel L-Type; details: Ricerca receptor/enzyme binding panel plus CYP450, Dihydropyridine, at 30 µM, hits give high values
# [8] = test system: Prostanoid EP4; details: Ricerca receptor/enzyme binding panel plus CYP450, at 30 µM, hits give high values
# [9] = test system: Sigma 1; details: Ricerca receptor/enzyme binding panel plus CYP450, at 30 µM, hits give high values
# [10] = target: Cytochrome P450 3A4 (Homo sapiens) (UniProt P08684); details: Ricerca receptor/enzyme binding panel plus CYP450; CYP450, 3A4; at 30 µM; hits give high values
# [11] = target: Voltage-gated inwardly rectifying potassium channel KCNH2 (Homo sapiens) (UniProt Q12809); details: Ricerca receptor/enzyme binding panel plus CYP450; Potassium Channel hERG; at 30 µM; hits give high values
# [12] = test system: Alpha-2A adrenergic receptor (Homo sapiens) + Histamine H1 receptor (Homo sapiens) + Mu-type opioid receptor (Homo sapiens); details: Ricerca receptor/enzyme binding panel plus CYP450; at 30 µM; hits give high values
# [13] = test system: Histamine H1; details: Ricerca receptor/enzyme binding panel plus CYP450, at 30 µM, hits give high values
# [14] = target: 5-hydroxytryptamine receptor 2B (Homo sapiens) (UniProt P41595); details: Ricerca receptor/enzyme binding panel plus CYP450; Serotonin (5-Hydroxytryptamine) 5-HT2B; at 30 µM; hits give high values
# [15] = test system: Transporter, Norepinephrine (NET); details: Ricerca receptor/enzyme binding panel plus CYP450, at 30 µM, hits give high values
# [16] = test system: Adrenergic alpha1A; details: Ricerca receptor/enzyme binding panel plus CYP450, at 30 µM, hits give high values
# [17] = test system: Cannabinoid CB1; details: Ricerca receptor/enzyme binding panel plus CYP450, at 30 µM, hits give high values
# [18] = target: Cytochrome P450 2D6 (Homo sapiens) (UniProt P10635); details: Ricerca receptor/enzyme binding panel plus CYP450; CYP450, 2D6; at 30 µM; hits give high values
# [19] = test system: Adenosine A2A; details: Ricerca receptor/enzyme binding panel plus CYP450, at 30 µM, hits give high values
# [20] = target: Alpha-2A adrenergic receptor (Homo sapiens) (UniProt P08913); details: Ricerca receptor/enzyme binding panel plus CYP450; Adrenergic alpha2A; at 30 µM; hits give high values
# [21] = target: Muscarinic acetylcholine receptor M3 (Homo sapiens) (UniProt P20309); details: Ricerca receptor/enzyme binding panel plus CYP450, at 30 µM, hits give high values
# [22] = test system: Glutamate NMDA; details: Ricerca receptor/enzyme binding panel plus CYP450, Phencyclidine, at 30 µM, hits give high values
# [23] = test system: Dopamine D2; details: Ricerca receptor/enzyme binding panel plus CYP450, at 30 µM, hits give high values
# [24] = test system: Adrenergic beta1; details: Ricerca receptor/enzyme binding panel plus CYP450, at 30 µM, hits give high values
# [25] = target: Muscarinic acetylcholine receptor M2 (Homo sapiens) (UniProt P08172); details: Ricerca receptor/enzyme binding panel plus CYP450, at 30 µM, hits give high values
# [26] = test system: Adrenergic alpha1B; details: Ricerca receptor/enzyme binding panel plus CYP450, at 30 µM, hits give high values
# [27] = target: Beta-2 adrenergic receptor (Homo sapiens) (UniProt P07550); details: Ricerca receptor/enzyme binding panel plus CYP450; Adrenergic beta2; at 30 µM; hits give high values
# [28] = test system: GABAA; details: Central, at 30 µM, hits give high values
# [29] = target: Cytochrome P450 1A2 (Homo sapiens) (UniProt P05177); details: Ricerca receptor/enzyme binding panel plus CYP450; CYP450, 1A2; at 30 µM; hits give high values
# [30] = test system: Adenosine A1; details: Ricerca receptor/enzyme binding panel plus CYP450, at 30 µM, hits give high values
# Sequence of Cytochrome P450 3A4 (Homo sapiens) (P08684 whole entry, looked up): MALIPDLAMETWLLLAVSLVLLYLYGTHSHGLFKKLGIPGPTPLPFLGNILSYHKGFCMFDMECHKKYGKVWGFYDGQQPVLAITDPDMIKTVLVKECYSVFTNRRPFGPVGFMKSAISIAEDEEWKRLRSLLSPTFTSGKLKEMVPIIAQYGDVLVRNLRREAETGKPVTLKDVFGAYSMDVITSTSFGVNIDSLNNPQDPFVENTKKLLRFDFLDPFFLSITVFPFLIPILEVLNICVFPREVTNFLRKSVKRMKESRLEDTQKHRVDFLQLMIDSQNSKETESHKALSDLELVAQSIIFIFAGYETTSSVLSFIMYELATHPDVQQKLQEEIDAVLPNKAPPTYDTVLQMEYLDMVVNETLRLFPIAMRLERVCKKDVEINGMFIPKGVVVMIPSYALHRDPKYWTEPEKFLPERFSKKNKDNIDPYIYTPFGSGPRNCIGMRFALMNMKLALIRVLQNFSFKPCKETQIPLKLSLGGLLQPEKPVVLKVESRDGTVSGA
# Sequence of Cytochrome P450 2C9 (Homo sapiens) (P11712 whole entry, looked up): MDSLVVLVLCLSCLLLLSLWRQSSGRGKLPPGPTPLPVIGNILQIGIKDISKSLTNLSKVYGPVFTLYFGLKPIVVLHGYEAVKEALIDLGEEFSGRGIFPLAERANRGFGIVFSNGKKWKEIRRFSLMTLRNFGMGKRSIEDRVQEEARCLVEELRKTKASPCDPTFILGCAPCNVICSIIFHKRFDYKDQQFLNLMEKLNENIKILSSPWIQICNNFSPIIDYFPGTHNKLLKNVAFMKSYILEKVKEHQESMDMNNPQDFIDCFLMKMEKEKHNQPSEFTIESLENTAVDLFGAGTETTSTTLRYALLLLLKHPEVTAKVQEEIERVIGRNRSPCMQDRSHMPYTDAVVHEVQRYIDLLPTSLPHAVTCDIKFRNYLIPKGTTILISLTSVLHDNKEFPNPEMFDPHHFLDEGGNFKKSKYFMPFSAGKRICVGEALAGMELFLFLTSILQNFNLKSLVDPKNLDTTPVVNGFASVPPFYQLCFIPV
# Sequence of Voltage-gated inwardly rectifying potassium channel KCNH2 (Homo sapiens) (Q12809 whole entry, looked up): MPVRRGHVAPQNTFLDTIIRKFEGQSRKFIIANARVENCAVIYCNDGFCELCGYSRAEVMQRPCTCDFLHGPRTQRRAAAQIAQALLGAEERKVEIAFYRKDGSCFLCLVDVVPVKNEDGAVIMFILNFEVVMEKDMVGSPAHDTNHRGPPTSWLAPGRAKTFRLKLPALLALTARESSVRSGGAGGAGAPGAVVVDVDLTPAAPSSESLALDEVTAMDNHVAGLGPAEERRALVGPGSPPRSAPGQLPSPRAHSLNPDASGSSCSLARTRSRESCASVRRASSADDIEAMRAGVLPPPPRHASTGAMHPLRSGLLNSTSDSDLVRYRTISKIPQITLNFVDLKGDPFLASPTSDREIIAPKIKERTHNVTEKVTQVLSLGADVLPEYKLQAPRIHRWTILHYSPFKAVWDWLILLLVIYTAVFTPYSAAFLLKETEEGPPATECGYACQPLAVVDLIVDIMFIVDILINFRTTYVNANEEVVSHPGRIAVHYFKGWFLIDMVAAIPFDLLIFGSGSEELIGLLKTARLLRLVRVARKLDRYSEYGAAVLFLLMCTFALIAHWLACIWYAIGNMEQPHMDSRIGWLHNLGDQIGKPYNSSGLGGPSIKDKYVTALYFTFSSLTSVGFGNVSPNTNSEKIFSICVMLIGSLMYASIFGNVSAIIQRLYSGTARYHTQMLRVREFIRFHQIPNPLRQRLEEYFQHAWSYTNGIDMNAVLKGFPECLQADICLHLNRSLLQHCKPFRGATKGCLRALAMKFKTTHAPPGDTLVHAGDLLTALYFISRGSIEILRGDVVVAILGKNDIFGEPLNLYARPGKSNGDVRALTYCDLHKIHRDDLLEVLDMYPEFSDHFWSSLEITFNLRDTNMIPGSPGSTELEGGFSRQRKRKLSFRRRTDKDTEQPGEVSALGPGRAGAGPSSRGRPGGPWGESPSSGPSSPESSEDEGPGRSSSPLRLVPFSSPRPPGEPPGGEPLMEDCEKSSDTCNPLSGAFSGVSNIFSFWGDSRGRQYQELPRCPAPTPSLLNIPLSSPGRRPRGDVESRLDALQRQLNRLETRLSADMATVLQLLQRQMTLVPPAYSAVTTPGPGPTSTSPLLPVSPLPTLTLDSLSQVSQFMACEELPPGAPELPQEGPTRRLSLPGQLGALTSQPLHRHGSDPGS
# Sequence of Muscarinic acetylcholine receptor M3 (Homo sapiens) (P20309 whole entry, looked up): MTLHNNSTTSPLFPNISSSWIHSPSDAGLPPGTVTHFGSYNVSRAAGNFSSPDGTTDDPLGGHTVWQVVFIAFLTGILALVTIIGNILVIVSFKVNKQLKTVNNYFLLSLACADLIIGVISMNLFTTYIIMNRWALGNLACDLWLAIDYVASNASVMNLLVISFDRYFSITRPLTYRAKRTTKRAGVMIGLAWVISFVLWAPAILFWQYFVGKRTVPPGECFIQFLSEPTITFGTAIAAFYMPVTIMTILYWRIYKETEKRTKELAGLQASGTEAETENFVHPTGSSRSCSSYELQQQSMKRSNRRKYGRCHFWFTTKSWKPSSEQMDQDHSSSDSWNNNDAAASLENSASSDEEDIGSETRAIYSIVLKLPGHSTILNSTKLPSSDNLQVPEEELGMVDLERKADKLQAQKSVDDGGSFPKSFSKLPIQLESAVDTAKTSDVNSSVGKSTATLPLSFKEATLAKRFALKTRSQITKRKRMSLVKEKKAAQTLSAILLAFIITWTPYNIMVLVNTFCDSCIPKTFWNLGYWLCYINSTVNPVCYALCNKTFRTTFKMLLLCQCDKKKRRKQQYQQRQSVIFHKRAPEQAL
# Sequence of Beta-2 adrenergic receptor (Homo sapiens) (P07550 whole entry, looked up): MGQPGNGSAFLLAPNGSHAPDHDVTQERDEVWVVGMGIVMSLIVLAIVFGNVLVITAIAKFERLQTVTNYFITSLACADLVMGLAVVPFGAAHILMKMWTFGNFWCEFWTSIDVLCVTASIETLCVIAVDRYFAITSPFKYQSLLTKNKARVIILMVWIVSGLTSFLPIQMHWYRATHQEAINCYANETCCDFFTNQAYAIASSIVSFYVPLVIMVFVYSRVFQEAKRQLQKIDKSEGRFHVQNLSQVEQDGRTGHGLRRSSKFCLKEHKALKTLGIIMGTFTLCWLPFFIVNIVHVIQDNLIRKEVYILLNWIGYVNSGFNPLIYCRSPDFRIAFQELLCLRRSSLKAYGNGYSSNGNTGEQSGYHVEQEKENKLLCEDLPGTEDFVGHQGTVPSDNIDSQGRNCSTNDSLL
# Sequence of Cytochrome P450 2D6 (Homo sapiens) (P10635 whole entry, looked up): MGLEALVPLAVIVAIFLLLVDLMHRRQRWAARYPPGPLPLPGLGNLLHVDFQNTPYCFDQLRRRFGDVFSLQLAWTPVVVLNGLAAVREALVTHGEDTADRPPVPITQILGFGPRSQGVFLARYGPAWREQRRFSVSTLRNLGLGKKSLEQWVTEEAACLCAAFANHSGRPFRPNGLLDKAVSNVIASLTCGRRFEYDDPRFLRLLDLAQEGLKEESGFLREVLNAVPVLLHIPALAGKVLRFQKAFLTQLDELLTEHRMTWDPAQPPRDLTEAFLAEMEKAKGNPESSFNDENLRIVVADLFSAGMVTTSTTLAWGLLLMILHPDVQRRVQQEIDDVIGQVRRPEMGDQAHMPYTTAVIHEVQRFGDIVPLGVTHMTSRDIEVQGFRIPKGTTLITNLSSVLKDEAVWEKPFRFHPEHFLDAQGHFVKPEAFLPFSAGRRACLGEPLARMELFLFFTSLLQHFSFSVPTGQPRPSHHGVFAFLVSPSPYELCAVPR
# Sequence of D(1A) dopamine receptor (Homo sapiens) (P21728 whole entry, looked up): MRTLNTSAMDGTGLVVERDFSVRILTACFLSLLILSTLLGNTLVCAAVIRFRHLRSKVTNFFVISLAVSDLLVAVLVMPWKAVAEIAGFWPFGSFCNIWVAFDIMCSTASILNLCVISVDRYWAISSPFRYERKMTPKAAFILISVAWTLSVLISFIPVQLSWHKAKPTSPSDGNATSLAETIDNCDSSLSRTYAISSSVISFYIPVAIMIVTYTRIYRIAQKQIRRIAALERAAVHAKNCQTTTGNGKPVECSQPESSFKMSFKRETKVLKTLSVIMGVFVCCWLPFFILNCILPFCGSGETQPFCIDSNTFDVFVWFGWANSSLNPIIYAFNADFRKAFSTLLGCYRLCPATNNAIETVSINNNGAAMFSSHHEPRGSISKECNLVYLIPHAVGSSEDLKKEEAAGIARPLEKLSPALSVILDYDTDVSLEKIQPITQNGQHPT
# Sequence of 5-hydroxytryptamine receptor 2B (Homo sapiens) (P41595 whole entry, looked up): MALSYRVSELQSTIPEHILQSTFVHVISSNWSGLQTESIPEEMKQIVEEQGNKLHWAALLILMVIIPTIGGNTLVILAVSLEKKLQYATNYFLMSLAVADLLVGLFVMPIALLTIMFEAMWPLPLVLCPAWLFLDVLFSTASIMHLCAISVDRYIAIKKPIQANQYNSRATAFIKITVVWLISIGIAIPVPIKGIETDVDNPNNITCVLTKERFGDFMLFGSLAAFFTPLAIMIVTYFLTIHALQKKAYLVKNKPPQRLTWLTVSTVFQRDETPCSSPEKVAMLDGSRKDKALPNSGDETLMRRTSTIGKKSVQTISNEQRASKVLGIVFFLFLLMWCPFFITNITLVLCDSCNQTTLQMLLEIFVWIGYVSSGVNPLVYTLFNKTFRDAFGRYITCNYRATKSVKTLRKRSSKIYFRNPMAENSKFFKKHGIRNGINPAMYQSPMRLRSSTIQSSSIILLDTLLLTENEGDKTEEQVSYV
smiles,measurement,setting,value
O=C(c1cc(C2CC2)on1)N(C1CCCCC1)C1CCCCC1,inhibition,[1],68%
same,inhibition,[2],38% (inactive)
same,inhibition,[3],24% (inactive)
same,inhibition,[4],-50%
same,inhibition,[5],21% (inactive)
same,inhibition,[6],59%
same,inhibition,[7],28% (inactive)
same,inhibition,[8],32% (inactive)
same,inhibition,[9],16% (inactive)
same,inhibition,[10],74%
same,inhibition,[11],42% (inactive)
same,inhibition,[12],-2% (inactive)
same,inhibition,[13],51%
same,inhibition,[14],20% (inactive)
same,inhibition,[15],52%
same,inhibition,[16],21% (inactive)
same,inhibition,[17],58%
same,inhibition,[18],-26% (inactive)
same,inhibition,[19],5% (inactive)
same,inhibition,[20],34% (inactive)
same,inhibition,[21],47% (inactive)
same,inhibition,[22],1% (inactive)
same,inhibition,[23],-1% (inactive)
same,inhibition,[24],45% (inactive)
same,inhibition,[25],-1% (inactive)
same,inhibition,[26],13% (inactive)
same,inhibition,[27],-1% (inactive)
same,inhibition,"[28]; Ricerca receptor/enzyme binding panel plus CYP450, Flunitrazepam",1% (inactive)
same,inhibition,"[28]; Ricerca receptor/enzyme binding panel plus CYP450, Muscimol",-2% (inactive)
same,inhibition,[29],0% (inactive)
same,inhibition,[30],38% (inactive)
